This is an account of results in patent US9856218B2, “Inhibitors of PRMT5 and methods of their use” (Ohio State Innovation Foundation, priority 2013, dated 2018).

“Also recorded” adds a separate entry of the source.

The test system of series [1] is Mantle cell lymphoma cell line Jeko. As to the kind of experiment: MTS anti-proliferation assay. The format is cell-based.
Series [2] has as its target T1, affinity-purified hSWI/SNF associated Fl-PRMT7 (Homo sapiens, UniProt Q9NVM4).
T1 construct: made in house
As to the kind of experiment: Histone methyltransferase assay, [3H]SAM. It counts as biochemical. Particulars: FIG. 33A. How it is done:
(§1) Histone methylation was performed in the presence of DMSO, and 1-40 μM inhibitor compounds. […] After 1.5 h incubation at 30° C., reaction mixtures were spotted on Whatman P-81 filter paper, washed five times with 10 mL of […] sodium carbonate buffer (pH 9.0) to remove unincorporated [3H]SAM, and methylated peptides were detected by scintillation counting.
(§2) Histone methylation was performed in the presence of DMSO, and 1-40 μM HLCL-32, HLCL-10, HLCL-61 and HLCL-64. […] After a 1.5 h incubation at 30° C. reaction mixtures were spotted on Whatman P-81 filter paper, washed five times with 10 mL of […] sodium carbonate buffer (pH 9.0) to remove unincorporated [^3H]SAM, and methylated peptides were detected by scintillation counting.

The target in another series is T2, recombinant PRMT1 (Rattus norvegicus, UniProt Q63009).
T2 construct: purchased Millipore 14-474
T2 sequence (Q63009 whole entry): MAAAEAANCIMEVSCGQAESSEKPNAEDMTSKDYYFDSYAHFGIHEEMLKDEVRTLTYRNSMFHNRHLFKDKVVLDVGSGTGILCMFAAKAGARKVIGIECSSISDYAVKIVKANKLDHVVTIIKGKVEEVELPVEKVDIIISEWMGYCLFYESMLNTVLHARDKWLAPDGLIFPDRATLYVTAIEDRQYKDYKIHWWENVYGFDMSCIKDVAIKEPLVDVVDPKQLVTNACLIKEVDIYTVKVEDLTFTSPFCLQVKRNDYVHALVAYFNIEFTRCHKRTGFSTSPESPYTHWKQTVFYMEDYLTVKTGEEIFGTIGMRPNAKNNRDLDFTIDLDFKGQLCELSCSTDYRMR
Briefly: Histone methyltransferase assay, [3H]SAM. The format is biochemical. How it is done:
as §1, §2

A further series has as its target T3, recombinant PRMT4 (Mus musculus, UniProt Q9WVG6).
T3 construct: purchased Millipore 14-575
Briefly: Histone methyltransferase assay, [3H]SAM. It counts as biochemical. Particulars: FIG. 33A. As for the experimental part:
as §1, §2

Series [3] relates to primary AML patient samples. As to the kind of experiment: Differentiation marker CD11b, flow cytometry. Particulars: 25 μM, compared with vehicle-treated cells. The format is cell-based, human. As for the experimental part:
Cells (1×10^6) were washed and passed through a […] filter (BD), then re-suspended in 200 μL binding buffer with or without 5 μL AnnexinV (for apoptosis detection) or CD11b (for maturation detection) antibody (BD Biosciences, Billerica, Mass.). After 15 min. of incubation cells were washed with PBS, re-suspended in 500 μL flow buffer and analyzed on a FACSCalibur cytometer (BD Biosciences). For apoptosis detection, 5 μL propidium iodide (PI) (BD Biosciences) was added to cell before running flow cytometry. Sorting for GFP-positive cells was carried out on BD FACS Aria instrument after filtering and washing cells 2× with ice cold PBS supplemented with 2% calf bovine serum and re-suspending in FACS buffer.
PRMT5 inhibition by C12 was also effective in promoting apoptosis and differentiation.
The increase in CD11b expression in AML cells lines followed a dose-dependent manner.

Series [4] relates to symmetrically dimethylated H3 (H3R8me2) and H4 (H4R3me2) in AML samples. As to the kind of experiment: Western blotting of PRMT5 histone marks. The following applies: FIG. 33B, listed as C12. It counts as cell-based. As for the experimental part: Whole cell lysates were prepared by suspending cell pellets in RIPA buffer for 20 min (1% NP-40, 0.1% SDS, 150 mM NaCl, 50 mM Tris, pH 8.0), then supplemented with 1× complete EDTA free protease inhibitor (Roche) and 1× PhosStop (Roche). Lysates were separated by 4-20% SDS-PAGE and transferred to PVDF membrane (GE Healthcare, Piscataway, N.J.). Membranes were blocked with 5% milk or BSA in 1×TBS with 0.1% Tween 20 for 1 hour at room temperature with shaking. Primary antibodies for ACTIN, GAPDH and FLT3 (Santa Cruz Biotechnology, Santa Cruz Calif.), P65 (Cell signaling), PRMT5 and SP1 (Millipore), H4R3, H3R8, H3 and H4 (Abcam), were diluted 1:1000 or 1:2000 in 5% milk or BSA and incubated for 1-2 hr at room temperature. Membranes were washed using 1×TBS-T, incubated with HRP-conjugated secondary antibodies diluted in 1×TBS-T with 5% milk or BSA, washed, and developed using SuperSignal West Dura Chemiluminescent Substrate (Thermo Scientific). Whole cell lysate (at least 500 μg) was used to pull down protein complexes using Catch and Release v2.0 Reversible Immunoprecipitation System (Millipore) and ˜4 μg antibodies against PRMT5, SP1, p65 and 1 μg normal IgG as negative control (Millipore). Denatured pull down samples were subjected to regular western blotting with exception of using TrueBlot IP secondary antibody (Rockland) for immunodetection. […]

Series [5] is described as follows: 24 hr Quick MTD test, one mouse for each dose. It counts as in vivo. As for the experimental part: Controlled shRNA depletion was evaluated in a murine lymphoma model (Eμ-BRD2 (Chung, J., et al. (2013) J. Biological Chemistry 288, 35534-35547)) and human xenograft model of glioblastoma (Yan, F., et al (2014) Cancer Research In Press). Referring to FIG. 62A, controlled expression of a PRMT5 shRNA (solid line) but not control shRNA (dashed line) leads to 100% survival of mice engrafted primary DLBCL tumor cells. […] The maximum tolerated dose (MTD, single dose) was identified at 50 mg/kg (see Table 11 below). A sub-toxic dose (25 mg/kg) was used to treat FcMCL mice. Control mice developed peripheral blood and lymph node tumor burden starting day 20 post-engraftment.

T1 sequence (Q9NVM4 whole entry): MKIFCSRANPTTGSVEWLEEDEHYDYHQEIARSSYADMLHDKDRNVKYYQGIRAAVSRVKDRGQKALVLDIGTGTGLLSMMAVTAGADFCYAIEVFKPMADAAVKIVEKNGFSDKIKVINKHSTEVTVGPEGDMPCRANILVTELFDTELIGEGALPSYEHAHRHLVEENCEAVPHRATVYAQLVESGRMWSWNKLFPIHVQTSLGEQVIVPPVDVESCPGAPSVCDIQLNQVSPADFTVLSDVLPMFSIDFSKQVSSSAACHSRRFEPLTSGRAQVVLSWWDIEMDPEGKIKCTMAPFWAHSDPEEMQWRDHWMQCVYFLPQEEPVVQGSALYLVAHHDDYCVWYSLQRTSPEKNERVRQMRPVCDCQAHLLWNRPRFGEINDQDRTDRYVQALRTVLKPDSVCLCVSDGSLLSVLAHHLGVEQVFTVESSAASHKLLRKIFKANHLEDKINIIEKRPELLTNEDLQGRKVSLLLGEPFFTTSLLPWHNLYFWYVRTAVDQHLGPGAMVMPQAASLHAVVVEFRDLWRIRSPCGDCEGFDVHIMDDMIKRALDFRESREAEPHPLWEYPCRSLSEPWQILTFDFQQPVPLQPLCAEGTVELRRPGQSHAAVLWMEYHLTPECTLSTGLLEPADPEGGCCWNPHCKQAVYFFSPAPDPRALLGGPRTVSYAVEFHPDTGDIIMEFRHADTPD
T3 sequence (Q9WVG6 whole entry): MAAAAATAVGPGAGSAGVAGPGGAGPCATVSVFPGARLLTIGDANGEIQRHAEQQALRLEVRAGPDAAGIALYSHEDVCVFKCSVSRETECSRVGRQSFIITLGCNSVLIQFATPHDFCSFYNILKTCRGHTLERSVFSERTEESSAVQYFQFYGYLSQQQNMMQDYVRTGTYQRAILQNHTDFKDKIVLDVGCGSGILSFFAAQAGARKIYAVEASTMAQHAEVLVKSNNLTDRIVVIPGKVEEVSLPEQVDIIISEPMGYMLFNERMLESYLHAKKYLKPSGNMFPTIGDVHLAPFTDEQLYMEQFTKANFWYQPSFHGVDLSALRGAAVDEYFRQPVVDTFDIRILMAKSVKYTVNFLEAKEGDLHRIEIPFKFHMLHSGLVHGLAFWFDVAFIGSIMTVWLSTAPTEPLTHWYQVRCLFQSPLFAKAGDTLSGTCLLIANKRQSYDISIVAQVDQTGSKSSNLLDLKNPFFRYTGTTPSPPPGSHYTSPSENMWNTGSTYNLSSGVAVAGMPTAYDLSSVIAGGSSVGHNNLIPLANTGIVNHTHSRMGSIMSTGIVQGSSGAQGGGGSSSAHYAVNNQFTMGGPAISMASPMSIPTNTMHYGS

For the molecule `CCn1c2ccccc2c2cc(CNCc3ccccc3OC)ccc21` [HLCL-61], the IC50 in series [1] (24 h incubation) is 44 µM; in series [1] (48 h incubation), 29 µM; in series [1] (72 h incubation) it was 28 µM. The “effect on PRMT7 enzymatic activity” value in series [2] is listed as “ineffectiveness”. Further, the “inhibition of PRMT1 enzyme” value at recombinant PRMT1 (10 μM, FIG. 17B) was “this non-specific activity is lost”; on recombinant PRMT1 (20 μM and above, FIG. 17A), “non-specific inhibition”. Also, the “effect on PRMT1 enzymatic activity” value at recombinant PRMT1 (FIG. 33A) is given as “ineffectiveness”. Moreover, the “effect on PRMT4 enzymatic activity” value on recombinant PRMT4 is listed as “ineffectiveness”. Moreover, in series [3], the “increase in expression of CD11b” value is on record as more than 4 fold. In addition, the “methylation inhibition of histones H3 and H4” value in series [4] is “most effective; also recorded: down-regulation of symmetrically dimethylated H3 (H3R8me2) and H4 (H4R3me2)”. For the same molecule, the survival after dosing entry was “Alive 24 hr after” in series [5] (IV-2.5 mg/kg, one mouse); “Alive 24 hr after” in series [5] (mouse, in vivo, ip, 50 mg/kg, 24 h); “Dead within 30 min” in series [5] (mouse, in vivo, ip, 200 mg/kg, 24 h); “Alive 24 hr after” in series [5] (mouse, in vivo, iv, 5 mg/kg, 24 h); “Alive 24 hr after” in series [5] (mouse, in vivo, iv, 10 mg/kg, 24 h); “Dead instantly after” in series [5] (mouse, in vivo, iv, 20 mg/kg). Moreover, in series [5] (mouse, in vivo, ip, 100 mg/kg), the “clinical signs after dosing” value is reported as “still slow moving”. Also, the “clinical signs after dosing (slow moving)” value in series [5] (mouse, in vivo, iv, 10 mg/kg) is on record as “dosing but slow”.
